Results: US20230321253A1, “BIFUNCTIONAL COMPOUNDS AND PHARMACEUTICAL USES THEREOF” (RISEN (SUZHOU) PHARMA TECH CO., LTD., priority 2022, published 2023)

Target: T1, KRAS-G12D protein (Homo sapiens, UniProt P01116, G12D)
T1 construct: host or cells: Aspc-1 cells
Assay: KRAS-G12D protein degradation study in Aspc-1 cells (western blot)
Assay type: cell-based
Settings: for inhibition at 0.1 µM: ASPC1, 24 h, read-out: Rate of protein degradation (KRAS^G12D); for inhibition at 0.1 µM / Rate of protein degradation (KRAS^G12D): Aspc-1 cells treated with 0.1 μM compound, 24 hours; for DC50: Aspc-1 cells, read-out: DC50 of test compound-induced KRAS^G12D protein degradation
Protocol: Aspc-1 (Cobioer, CBP60546) cells in exponential growth phase were inoculated on a 6-well cell culture plate (Corning, 3516) at density of 1E6/well; and cells in the plate were cultured in 37° C. incubator containing 5% carbon dioxide. The next day, test compounds were dissolved in DMSO (Sigma, RNBF5902) for the preparation of a 10 mM concentration stock solution. The stock solution was diluted with complete medium (RPMI-1640 supplemented with 10% fetal bovine serum, 1% penicillin-streptomycin), yielding working solutions of various concentrations. The plate, after the addition of compounds, was placed in a 5% carbon dioxide incubator, and incubated at 37° C. for 24 hours (final DMSO concentration was 0.1%). The plate was then removed from the incubator, and the cells were washed twice with precooled PBS (Gibco, 14190250), followed by addition of 80 μL RIPA lysis buffer (containing protease inhibitor (Invitrogen™, AM2696)) to each well. The adherent cells were scraped off with a cell scraper, and the cell lysate was transferred to a 1.5 mL centrifuge tube followed with a 30-minute incubation on ice. The lysate was then clarified with centrifugation at 14000 rpm for 10 min at 4° C. The supernatant was transferred into a new 1.5 mL centrifuge tube, and protein concentration was measured with BCA protein detection kit (Thermo Fisher, 23225). KRAS-G12D protein level was assessed by western blot.
A mixture of cell lysate (40 μL) and loading buffer (10 μL 5×SDS (Beyotime, P0015L)) was denatured in a water bath at 95° C. for 10 min. The denatured protein sample, at 30 μL/well, was loaded into the corresponding well of a 4-20% Bis-Tris gel (Kingsley, M00656). Protein samples were initially electrophoresed at 80 V for 30 minutes, followed by 120 V for 40 minutes, until the bromophenol blue strip ran to an appropriate position. After electrophoresis, iBlot2 (Life Technologies, IB21001) was used to transfer the separated samples onto PVDF film. The PVDF membrane was washed with double-distilled water and then blocked in TBST (Thermo Scientific, 28360) buffer containing 5% non-fat milk, for 2 hours. Blocked membrane was rinsed with tris-buffered saline tween-20 (Thermo Scientific, 28360, TBST) three times, 10 minutes each. Membrane was then incubated with 1:1000 diluted KRAS primary antibody (CST, cat #14429S) overnight at 4° C. Membrane was rinsed as described previously followed by 1 hour incubation of secondary antibody at room temperature. After washing the film three times with TBST, ECL color developing solution was applied, and image was captured with Biorad Chemi Doc gel imager. The band gray value was quantified (Image Lab), and protein degradation level was calculated according to the following formula:
Level of RAS protein expression=(RAS-compound/GAPDH)/(RAS-DMSO/GAPDH)
Level of degradation (%)=(1−Rate of RAS protein expression)×100
The symbols “−”, “+”, “++”, and “+++” indicate that the degradation level of KRAS^G12D protein induced by the test compounds was 10% or less, 11 to 30%, 31 to 60%, and greater than 60%, respectively.
Half-maximum degradation concentrations (DC50s) of exemplary test compounds were calculated using GraphPad Prism and their values are shown in Table 6. The symbols “++++”, “+++”, “++” and “+” indicate DC50 equal or less than 10 nM, 11-50 nM, 51-100 nM, and 101-200 nM, respectively.

T1 sequence (P01116 1-188 isoform P01116-2 G12D): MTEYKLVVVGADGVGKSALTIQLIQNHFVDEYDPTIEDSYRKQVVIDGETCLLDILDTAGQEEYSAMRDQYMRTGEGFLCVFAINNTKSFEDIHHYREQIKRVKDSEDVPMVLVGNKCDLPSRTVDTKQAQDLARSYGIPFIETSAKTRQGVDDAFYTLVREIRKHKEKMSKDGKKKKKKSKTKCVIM

Compound	inhibition at 0.1 µM [%]	DC50 [µM]	Rate of protein degradation (KRAS^G12D)
CCc1c(F)ccc2cc(O)cc(-c3ncc4c(N5CC6CCC(C5)N6)nc(OCC5(CN6CCC7(CC6)CC(N6CCC(c8ccc9c(C%10CCC(=O)NC%10=O)nn(C)c9c8)CC6)C7)CC5)nc4c3F)c12 (centres unmarked) [Compound 81]	31 to 60	–	–
C#Cc1c(F)ccc2cc(O)cc(-c3ncc4c(N5CC6CCC(C5)N6)nc(O[C@H]5CCN(CCCCCCCCCC(=O)N[C@H](C(=O)N6C[C@H](O)C[C@H]6C(=O)N[C@@H](C)c6ccc(-c7scnc7C)cc6)C(C)(C)C)C5)nc4c3F)c12 [Compound 83]	11 to 30	0.101 to 0.2	–
C#Cc1c(F)ccc2cc(O)cc(-c3ncc4c(N5CC6CCC(C5)N6)nc(O[C@H]5CCN(CCCCCCCCCCCC(=O)N[C@H](C(=O)N6C[C@H](O)C[C@H]6C(=O)N[C@@H](C)c6ccc(-c7scnc7C)cc6)C(C)(C)C)C5)nc4c3F)c12 [Compound 84]	31 to 60	–	–
C#Cc1c(F)ccc2cc(O)cc(-c3ncc4c(N5CC6CCC(C5)N6)nc(O[C@H]5CCN(CCCCCCCCCCC(=O)N[C@H](C(=O)N6C[C@H](O)C[C@H]6C(=O)N[C@@H](C)c6ccc(-c7scnc7C)cc6)C(C)(C)C)C5)nc4c3F)c12 [Compound 85]	> 60	–	–
C#Cc1c(F)ccc2cc(O)cc(-c3ncc4c(N5CC6CCC(C5)N6)nc(O[C@@H]5CCN(CCCCCCCCCCC(=O)N[C@H](C(=O)N6C[C@H](O)C[C@H]6C(=O)N[C@@H](C)c6ccc(-c7scnc7C)cc6)C(C)(C)C)C5)nc4c3F)c12 [Compound 86]	31 to 60	–	–
C#Cc1c(F)ccc2cc(O)cc(-c3ncc4c(N5CC6CCC(C5)N6)nc(O[C@@H]5CCN(CCCCCCCCCCCC(=O)N[C@H](C(=O)N6C[C@H](O)C[C@H]6C(=O)N[C@@H](C)c6ccc(-c7scnc7C)cc6)C(C)(C)C)C5)nc4c3F)c12 [Compound 87]	31 to 60	–	–
C#Cc1c(F)ccc2cc(O)cc(-c3ncc4c(N5CC6CCC(C5)N6)nc(O[C@@H]5CCN(CCCCCCCCCC(=O)N[C@H](C(=O)N6C[C@H](O)C[C@H]6C(=O)N[C@@H](C)c6ccc(-c7scnc7C)cc6)C(C)(C)C)C5)nc4c3F)c12 [Compound 88]	≤ 10	–	–
C#Cc1c(F)ccc2cc(O)cc(-c3ncc4c(N5CC6CCC(C5)N6)nc(OCC5C[C@@H](NC(=O)CCCCCCCCCCC(=O)N6CCC(c7ccc8c(C9CCC(=O)NC9=O)nn(C)c8c7)CC6)CN5C)nc4c3F)c12 (some centres unmarked) [Compound 89]	≤ 10	–	–
C#Cc1c(F)ccc2cc(O)cc(-c3ncc4c(N5CC6CCC(C5)N6)nc(OC[C@@H]5C[C@@H](NC(=O)CCCCCCCCCCC(=O)N[C@H](C(=O)N6C[C@H](O)C[C@H]6C(=O)N[C@@H](C)c6ccc(-c7scnc7C)cc6)C(C)(C)C)CN5C)nc4c3F)c12 [Compound 90]	≤ 10	–	–
C#Cc1c(F)ccc2cc(O)cc(-c3ncc4c(N5CC6CCC(C5)N6)nc(OC[C@@H]5C[C@@H](NC(=O)CCCCCCC(=O)N[C@H](C(=O)N6C[C@H](O)C[C@H]6C(=O)N[C@@H](C)c6ccc(-c7scnc7C)cc6)C(C)(C)C)CN5C)nc4c3F)c12 [Compound 91]	–	–	− (10% or less)
C#Cc1c(F)ccc2cc(O)cc(-c3ncc4c(N5CC6CCC(C5)N6)nc(OCC56CCCN5[C@@H](COC(=O)NCCCCCCCCCCC(=O)N[C@H](C(=O)N5C[C@H](O)C[C@H]5C(=O)N[C@@H](C)c5ccc(-c7scnc7C)cc5)C(C)(C)C)CC6)nc4c3F)c12 (some centres unmarked) [Compound 93]	> 60	0.051 to 0.1	–
C#Cc1c(F)ccc2cc(O)cc(-c3ncc4c(N5CC6CCC(C5)N6)nc(OCC5CCN(CC(=O)N6CCC(c7ccc8c(C9CCC(=O)NC9=O)nn(C)c8c7)CC6)C5)nc4c3F)c12 (centres unmarked) [Compound 94]	31 to 60	–	–
C#Cc1c(F)ccc2cc(O)cc(-c3ncc4c(N5CC6CCC(C5)N6)nc(OC[C@@H]5C[C@@H](NC(=O)N6CCC(c7ccc8c(C9CCC(=O)NC9=O)nn(C)c8c7)CC6)CN5C)nc4c3F)c12 (some centres unmarked) [Compound 95]	11 to 30	–	–
C#Cc1c(F)ccc2cc(O)cc(-c3ncc4c(N5CC6CCC(C5)N6)nc(OCC56CCCN5[C@@H](COC(=O)N5CCC(c7ccc8c(C9CCC(=O)NC9=O)nn(C)c8c7)CC5)CC6)nc4c3F)c12 (some centres unmarked) [Compound 97]	31 to 60	–	–
C#Cc1c(F)ccc2cc(O)cc(-c3ncc4c(N5CC6CCC(C5)N6)nc(OCC56CCCN5[C@@H](COC(=O)NCCCCCCCCCC(=O)N[C@H](C(=O)N5C[C@H](O)C[C@H]5C(=O)N[C@@H](C)c5ccc(-c7scnc7C)cc5)C(C)(C)C)CC6)nc4c3F)c12 (some centres unmarked) [Compound 98]	31 to 60	–	–
C#Cc1c(F)ccc2cc(O)cc(-c3ncc4c(N5CC6CCC(C5)N6)nc(OCC5(CN6CCC(c7ccc8c(C9CCC(=O)NC9=O)nn(C)c8c7)CC6)CC5)nc4c3F)c12 (centres unmarked) [Compound 99]	–	0.011 to 0.05	+++ (greater than 60%)
C#Cc1c(F)ccc2cc(O)cc(-c3ncc4c(N5CC6CCC(C5)N6)nc(OC5CCN(CC(=O)N6CCC7(CC6)CC(N6CCC(c8ccc9c(C%10CCC(=O)NC%10=O)nn(C)c9c8)CC6)C7)C5)nc4c3F)c12 (centres unmarked) [Compound 101]	–	–	+ (11 to 30%)
C#Cc1c(F)ccc2cc(O)cc(-c3ncc4c(N5CC6CCC(C5)N6)nc(OC5CCN(CCCCCCCCCCC(=O)N6CCN(C(=O)C[C@H](NC(=O)[C@@H]7C[C@@H](O)CN7C(=O)[C@@H](NC(=O)C7(F)CC7)C(C)(C)C)c7ccc(-c8scnc8C)cc7)CC6)CC5)nc4c3F)c12 [Compound 103]	≤ 10	–	–
C#Cc1c(F)ccc2cc(O)cc(-c3ncc4c(N5CC6CCC(C5)N6)nc(OCC5(CN6CCN(CCCCCCCCCCC(=O)N7CCN(C(=O)C[C@H](NC(=O)[C@@H]8C[C@@H](O)CN8C(=O)[C@@H](NC(=O)C8(F)CC8)C(C)(C)C)c8ccc(-c9scnc9C)cc8)CC7)CC6)CC5)nc4c3F)c12 [Compound 106]	11 to 30	–	–
C#Cc1c(F)ccc2cc(O)cc(-c3ncc4c(N5CC6CCC(C5)N6)nc(OCC5(CN6CCC(C(=O)N7CCN(c8ccc(NC9CCC(=O)NC9=O)cc8F)CC7)CC6)CC5)nc4c3F)c12 (centres unmarked) [Compound 107]	11 to 30	–	–
C#Cc1c(F)ccc2cc(O)cc(-c3ncc4c(N5CC6CCC(C5)N6)nc(OCC5(CN6CCN(C(=O)CN7CCN(c8ccc(NC9CCC(=O)NC9=O)cc8F)CC7)CC6)CC5)nc4c3F)c12 (centres unmarked) [Compound 108]	≤ 10	–	–
C#Cc1c(F)ccc2cc(O)cc(-c3ncc4c(N5CC6CCC(C5)N6)nc(OCC5(CN6CCN(CC7CCN(c8ccc(NC9CCC(=O)NC9=O)cc8F)CC7)CC6)CC5)nc4c3F)c12 (centres unmarked) [Compound 109]	31 to 60	–	–
C#Cc1c(F)ccc2cc(O)cc(-c3ncc4c(N5CC6CCC(C5)N6)nc(OCC5(CN6CCC7(CC6)CCN(c6ccc(NC8CCC(=O)NC8=O)cc6F)CC7)CC5)nc4c3F)c12 (centres unmarked) [Compound 110]	31 to 60	< 0.01	–
C#Cc1c(F)ccc2cc(O)cc(-c3ncc4c(N5CC6CCC(C5)N6)nc(OCC5(CN6CCC(N7CCC(c8ccc9c(C%10CCC(=O)NC%10=O)nn(C)c9c8)CC7)CC6)CC5)nc4c3F)c12 (centres unmarked) [Compound 113]	> 60	< 0.01	–
C#Cc1c(F)ccc2cc(O)cc(-c3ncc4c(N5CC6CCC(C5)N6)nc(OC5CCN(CC(=O)N6CCC7(CC6)CC(N6CCC(c8ccc(NC9CCC(=O)NC9=O)cc8F)CC6)C7)CC5)nc4c3F)c12 (centres unmarked) [Compound 114]	> 60	< 0.01	–
C#Cc1c(F)ccc2cc(O)cc(-c3ncc4c(N5CC6CCC(C5)N6)nc(OCC5(CN6CCN(CC7CCN(c8ccc9c(c8)C(=O)N(C8CCC(=O)NC8=O)C9=O)CC7)CC6)CC5)nc4c3F)c12 (centres unmarked) [Compound 115]	31 to 60	0.011 to 0.05	–
C#Cc1c(F)ccc2cc(O)cc(-c3ncc4c(N5CC6CCC(C5)N6)nc(OCC5(CN6CCN(C(=O)CN7CCN(c8ccc9c(c8)C(=O)N(C8CCC(=O)NC8=O)C9=O)CC7)CC6)CC5)nc4c3F)c12 (centres unmarked) [Compound 116]	31 to 60	–	–
C#Cc1c(F)ccc2cc(O)cc(-c3ncc4c(N5CC6CCC(C5)N6)nc(OCC5(CN6CCN(c7ccc8c(c7)C(=O)N(C7CCC(=O)NC7=O)C8=O)CC6)CC5)nc4c3F)c12 (centres unmarked) [Compound 117]	> 60	–	–
